# Test results reported in patent publication US20260193283A1, “CARBOXAMIDE DERIVATIVE HAVING RSK INHIBITORY EFFECT, PHARMACEUTICAL COMPOSITION COMPRISING SAME, AND USE THEREOF” (KINOTECK THERAPEUTICS CO., LTD., priority 2022, published 2026).
# Legend:
# [1] = biological target: T1, RSK2 kinase (Homo sapiens, UniProt P51812); test: HTRF KinEASE-STK assay of RSK2 kinase inhibition in vitro; assay type: biochemical; settings: 0.18 nM RSK2 recombinase, 10 μM ATP, read-out: IC50, in vitro inhibitory activity on RSK2 kinase
# T1 construct: purchased Carna 01-150
# Description: The inhibitory effect of small molecule compounds on RSK2 kinase was detected using HTRF KinEASE-STK assay. […] Specifically, firstly, 2.5×RSK2 recombinase and 5×inhibitor were added to a buffer system in a 384 well plate, and incubated at room temperature for 10 minutes, negative control wells without enzyme and positive control wells without compounds were set at the same time, then, 2.5×peptide substrate and ATP were added, and then the reaction began.
# [2] = test system: MDA-MB-453 cells; test: Triple negative breast cancer cell proliferation inhibition (CCK-8, 5 days); assay type: cell-based; settings: Homo sapiens, 120 h, 5 days incubation, read-out: IC50, proliferation inhibitory activity on MDA-MB-453
# Description: The compound or vehicle control (DMSO) was diluted in culture medium in a 96 well plate, with the final concentrations of 50, 25, 12.5, 6.25, 3.13, 1.56, 0.78, 0.39, 0.2, and 0.1 μM. 1×10^3 MDA-MB-453 cells were inoculated into each well, and the plate was incubated in the incubator for 5 days. After the incubation period, cell survival was quantified using Cell Counting Kit-8 (CCK-8) reagent. In short, the cells were incubated with CCK8 for 2-4 hours, and then the absorbance at 450 nm and 650 nm was measured. CCK-8 is WST-8 (chemical name: 2-(2-methoxy-4-nitrophenyl)-3-(4-nitrophenyl)-5-(2,4-disulfonate benzene)-2H tetrazole monosodium salt), which is reduced to a highly water-soluble yellow formazan dye by dehydrogenases in cells under the action of electron carrier 1-methoxy-5-methylphenazinium sulfate dimethyl ester (1-Methoxy PMS). The number of generated formazan dye substances is directly proportional to the number of live cells, so this characteristic can be used to calculate the survival percentage, as shown in the following equation:
# [formula] • As: experimental well (the treatment wells containing cells, different concentrations of drug) • Ab: solvent control well (solvent treatment wells containing cells, 0 concentration of drug) • Ac: blank well (well without cells and drugs)
# The cell survival rate data and corresponding compound concentrations were input into GraphPad Prism software to fit and calculate IC50 values.
# [3] = Pharmacokinetic study in mice; assay type: in vivo; settings: mouse; male ICR mice, oral gavage administration, 10 mg/kg, plasma
# Description: Pharmacokinetic experiments in mice were conducted using male ICR mice weighed 20-25 g, provided by the Experimental Animal Management Department of Shanghai Family Planning Scientific Research Institute. 3 mice were taken and fasted overnight, and then administered orally by gavage (10 mg/kg). Blood samples were collected before administration, at 15 and 30 minutes as well as 1, 2, 4, 8, and 24 hours after administration; in addition, another 3 mice were taken and administered intravenously (1 mg/kg), and blood samples were collected before administration, at 15 and 30 minutes as well as 1, 2, 4, 8, and 24 hours after administration. blood sample was centrifuged at 6800 g, 2-8° C. for 6 minutes, and then the plasma was collected and stored at −80° C. Plasma at each time point were added 10-20 times the amount of methanol or acetonitrile solution containing internal standard, and mixed by vortex for 1 minute, centrifuged at 18000 rpm at 4° C. for 10 minutes, and then the supernatant was taken to analyze by LC-MS/MS directly. The main pharmacokinetic parameters were analyzed using WinNonlin 7.0 software for non compartmental model analysis.
# T1 sequence (P51812 whole entry): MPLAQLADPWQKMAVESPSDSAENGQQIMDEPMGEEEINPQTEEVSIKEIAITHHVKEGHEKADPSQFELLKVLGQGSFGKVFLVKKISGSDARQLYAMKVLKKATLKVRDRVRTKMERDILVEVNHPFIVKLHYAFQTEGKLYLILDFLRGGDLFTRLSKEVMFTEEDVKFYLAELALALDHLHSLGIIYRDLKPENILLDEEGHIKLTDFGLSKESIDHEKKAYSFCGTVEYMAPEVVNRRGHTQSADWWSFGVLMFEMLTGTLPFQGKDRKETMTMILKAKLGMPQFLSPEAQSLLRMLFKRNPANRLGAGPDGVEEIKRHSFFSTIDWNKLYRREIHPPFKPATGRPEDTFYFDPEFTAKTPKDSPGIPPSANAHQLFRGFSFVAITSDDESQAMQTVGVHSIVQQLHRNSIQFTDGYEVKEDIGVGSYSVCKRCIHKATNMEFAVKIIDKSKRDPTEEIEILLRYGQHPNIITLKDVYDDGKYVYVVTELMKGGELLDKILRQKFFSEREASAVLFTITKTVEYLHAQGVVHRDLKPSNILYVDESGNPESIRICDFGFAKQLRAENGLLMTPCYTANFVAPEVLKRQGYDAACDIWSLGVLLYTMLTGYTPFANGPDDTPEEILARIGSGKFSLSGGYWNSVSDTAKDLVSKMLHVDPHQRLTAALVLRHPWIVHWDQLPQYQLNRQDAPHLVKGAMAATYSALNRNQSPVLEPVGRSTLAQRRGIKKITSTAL
Compound,IC50 [1] [nM],also measured
"C[C@@H]1CNC(=O)c2cc3ccc(C(=O)Nc4cnn(Cc5ccc(N=S(C)(C)=O)cc5)c4)nc3n21 [Compound 2, (R)—N-(1-(4-((dimethyl (oxo)-λ^6-sulfanylidene)amino)benzyl)-1H-pyrazol-4-yl)-9-methyl-6-oxo-6,7,8,9-tetrahydropyridino [3′,2′: 4,5]pyrrolo [1,2-a]pyrazine-2-carboxamide]",0.31,
"CC(c1ccc(C(C)(C)O)nc1)n1cc(NC(=O)c2ccc3cc4n(c3n2)[C@H](C)CNC4=O)cn1 (stereo partly drawn) [Compound 8, (9R)—N-(1-(1-(6-(2-hydroxyprop-2-yl)pyridin-3-yl)ethyl)-1H-pyrazol-4-yl)-9-methyl-6-oxo-6,7,8,9-tetrahydropyridino [3′, 2′: 4,5]pyrrolo [1,2-a]pyrazine-2-carboxamide]",0.8,IC50 [2]: 5610 nM
"C[C@@H]1CNC(=O)c2cc3ccc(C(=O)Nc4cnn(Cc5ccc(N)cc5)c4)c(F)c3n21 [Compound 7, (R)—N-(1-(4-aminobenzyl)-1H-pyrazol-4-yl)-6-fluoro-4-methyl-1-oxo-1,2,3,4-tetrahydropyrazino [1,2-a]indole-7-carboxamide]",99.9,
C[C@@H]1CNC(=O)c2cc3ccc(C(=O)Nc4cnn(Cc5ccnc(C(C)(C)O)c5)c4)nc3n21 [Compound 4],0.42,IC50 [2]: 2660 nM
C[C@@H]1CNC(=O)c2cc3ccc(C(=O)Nc4cnn(Cc5ccc(C(C)(C)O)nc5)c4)nc3n21 [Compound 5],0.35,IC50 [2]: 2040 nM; AUC(0-t) [3]: 35100 ng·h/mL; Cmax [3]: 17900 ng/mL; Tmax [3]: 15 min; half-life [3]: 94.2 min
"C[C@@H]1CNC(=O)c2cc3ccc(C(=O)Nc4cnn(Cc5ccc(P(C)(C)=O)cc5)c4)nc3n21 [Compound 1, (R)—N-(1-(4-(dimethylphosphoryl)benzyl)-1H-pyrazol-4-yl)-9-methyl-6-oxo-6,7,8,9-tetrahydropyridino[3′, 2′: 4,5]pyrrolo [1,2-a]pyrazine-2-carboxamide]",0.44,
Cc1cc(NC(=O)c2ccc3cc4n(c3n2)[C@H](C)CNC4=O)nn1Cc1ccc(C(C)(C)O)nc1 [Compound 9],43,
"C[C@@H]1CNC(=O)c2cc3cc(F)c(NC(=O)c4cnn(Cc5ccc(N)cc5)c4)nc3n21 [Compound 6, (R)-1-(4-aminobenzyl)-N-(3-fluoro-9-methyl-6-oxo-6,7,8,9-tetrahydropyridino [3′, 2″: 4,5]pyrrolo [1,2-a]pyrazin-2-yl)-1H-pyrazole-4-carboxamide]",175,
C[C@@H]1CNC(=O)c2cc3ccc(C(=O)Nc4cnn(Cc5ccc(C6(O)CC6)nc5)c4)nc3n21 [Compound 10],0.11,
C[C@@H]1CNC(=O)c2cc3ccc(C(=O)Nc4cnn(Cc5ccc(S(C)(=N)=O)cc5)c4)nc3n21 (some centres unmarked) [Compound 3],0.24,

# Further lines, with some results ahead:
IC50 [1] [nM],Compound,also measured
0.22,[2H]C([2H])([2H])C(O)(c1ccc(Cn2cc(NC(=O)c3ccc4cc5n(c4n3)[C@H](C)CNC5=O)cn2)cn1)C([2H])([2H])[2H] [Compound 17],
0.08,"C[C@@H]1NC(=O)c2cc3ccc(C(=O)Nc4cnn(Cc5cnc(C(C)(C)O)c(F)c5)c4)nc3n2[C@@H]1C [Compound 16, (8S, 9R)—N-(1-((5-fluoro-6-(2-hydroxyprop-2-yl)pyridin-3-yl)methyl)-1H-pyrazol-4-yl)-8,9-dimethyl-6-oxo-6,7,8,9-tetrahydropyridino [3′, 2′: 4,5]pyrrolo [1,2-a]pyrazine-2-carboxamide]",
0.43,C[C@@H]1NC(=O)c2cc3ccc(C(=O)Nc4cnn(Cc5ccc(C(C)(C)O)nc5)c4)nc3n2[C@@H]1C [Compound 12],
5.43,C[C@@H]1CNC(=O)c2cc3ccc(C(=O)Nc4cnn(Cc5ccc(C(C)(C)O)nc5)c4)c(F)c3n21 [Compound 13],
0.29,C[C@@H]1CNC(=O)c2cc3ccc(C(=O)Nc4cnn(Cc5ccc(C6(O)CCC6)nc5)c4)nc3n21 [Compound 11],
0.08,"C[C@@H]1CNC(=O)c2cc3ccc(C(=O)Nc4cnn(Cc5cnc(C(C)(C)O)c(F)c5)c4)nc3n21 [Compound 15, (R)—N-(1-((5-fluoro-6-(2-hydroxyprop-2-yl)pyridin-3-yl)methyl)-1H-pyrazol-4-yl)-9-methyl-6-oxo-6,7,8,9-tetrahydropyridino [3, 2′: 4,5]pyrrolo [1,2-a]pyrazine-2-carboxamide]",IC50 [2]: 2480 nM; AUC(0-t) [3]: 99300 ng·h/mL; Cmax [3]: 22800 ng/mL; Tmax [3]: 30 min; half-life [3]: 131 min
1.08,"C[C@@H]1CNC(=O)c2cc3ccc(C(=O)Nc4cnn(Cc5ccc(N)cc5)c4)nc3n21.Cl [Control Compound II, reference compound]",IC50 [2]: 4600 nM; AUC(0-t) [3]: 4610 ng·h/mL; Cmax [3]: 3420 ng/mL; Tmax [3]: 25.2 min; half-life [3]: 49.2 min
1.58,C[C@H]1Cn2c(cc3ccc(C(=O)Nc4cnn(Cc5ccc(C(C)(C)O)nc5)c4)nc32)C(=O)N1 [Compound 14],
